Results on 12 compounds are retold here after patent publication US12528767B2, “HDAC6 inhibitors and uses thereof” (Eikonizo Therapeutics, Inc., priority 2019, dated 2026).

One experiment concerns the target Full length Human HDAC1 (Homo sapiens, UniProt Q13547).
In another experiment the target is T1, Human HDAC7 aa 518-end (Homo sapiens, UniProt Q8WUI4).
T1 sequence (Q8WUI4 518-952 limits assumed): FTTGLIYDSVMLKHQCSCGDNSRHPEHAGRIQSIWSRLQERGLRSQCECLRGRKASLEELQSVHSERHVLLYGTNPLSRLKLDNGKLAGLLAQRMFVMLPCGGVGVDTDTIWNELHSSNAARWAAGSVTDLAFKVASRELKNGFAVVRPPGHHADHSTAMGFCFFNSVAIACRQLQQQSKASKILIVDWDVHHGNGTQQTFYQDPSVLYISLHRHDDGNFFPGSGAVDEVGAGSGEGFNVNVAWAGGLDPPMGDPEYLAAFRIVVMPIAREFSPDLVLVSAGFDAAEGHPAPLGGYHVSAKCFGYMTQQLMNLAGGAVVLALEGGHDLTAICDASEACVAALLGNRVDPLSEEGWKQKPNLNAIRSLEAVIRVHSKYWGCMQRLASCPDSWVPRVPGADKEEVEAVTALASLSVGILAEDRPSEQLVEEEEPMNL

The next experiment deals with T2, Full length Human HDAC6 (Homo sapiens, UniProt Q9UBN7).
T2 sequence (Q9UBN7 1-1215): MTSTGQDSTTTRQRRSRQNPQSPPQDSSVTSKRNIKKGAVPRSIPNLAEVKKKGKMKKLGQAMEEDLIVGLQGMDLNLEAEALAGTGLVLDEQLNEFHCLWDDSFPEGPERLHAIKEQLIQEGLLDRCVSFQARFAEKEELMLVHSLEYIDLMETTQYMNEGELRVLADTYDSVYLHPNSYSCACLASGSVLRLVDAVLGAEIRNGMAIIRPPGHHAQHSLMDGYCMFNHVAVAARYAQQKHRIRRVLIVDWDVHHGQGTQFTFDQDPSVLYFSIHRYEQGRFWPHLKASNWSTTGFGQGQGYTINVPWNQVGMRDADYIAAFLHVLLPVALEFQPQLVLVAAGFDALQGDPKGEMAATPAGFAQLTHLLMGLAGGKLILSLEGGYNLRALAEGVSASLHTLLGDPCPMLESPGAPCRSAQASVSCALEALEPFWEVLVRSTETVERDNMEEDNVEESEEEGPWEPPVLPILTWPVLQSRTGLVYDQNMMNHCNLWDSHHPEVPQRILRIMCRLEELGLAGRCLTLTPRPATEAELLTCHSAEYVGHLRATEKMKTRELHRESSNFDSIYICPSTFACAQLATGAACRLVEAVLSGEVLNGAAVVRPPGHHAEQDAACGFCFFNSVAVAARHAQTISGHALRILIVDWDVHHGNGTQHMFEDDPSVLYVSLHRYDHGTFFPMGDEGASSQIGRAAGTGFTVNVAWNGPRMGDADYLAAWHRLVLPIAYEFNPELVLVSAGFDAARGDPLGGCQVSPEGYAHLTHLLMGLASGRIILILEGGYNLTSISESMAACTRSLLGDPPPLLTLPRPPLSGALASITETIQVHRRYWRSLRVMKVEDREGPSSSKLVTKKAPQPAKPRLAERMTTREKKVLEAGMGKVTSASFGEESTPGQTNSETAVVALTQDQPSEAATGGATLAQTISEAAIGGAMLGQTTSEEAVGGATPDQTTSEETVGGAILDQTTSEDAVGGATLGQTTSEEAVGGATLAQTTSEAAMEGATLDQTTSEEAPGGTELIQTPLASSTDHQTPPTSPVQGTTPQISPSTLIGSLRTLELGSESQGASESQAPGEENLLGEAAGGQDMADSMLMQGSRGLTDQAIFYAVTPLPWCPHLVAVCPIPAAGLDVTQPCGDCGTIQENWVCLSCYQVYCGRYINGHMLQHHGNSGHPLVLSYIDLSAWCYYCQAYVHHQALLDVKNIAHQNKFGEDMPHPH

Another experiment deals with T3, Full length Human HDAC10 (Homo sapiens, UniProt Q969S8).
T3 sequence (Q969S8 1-669): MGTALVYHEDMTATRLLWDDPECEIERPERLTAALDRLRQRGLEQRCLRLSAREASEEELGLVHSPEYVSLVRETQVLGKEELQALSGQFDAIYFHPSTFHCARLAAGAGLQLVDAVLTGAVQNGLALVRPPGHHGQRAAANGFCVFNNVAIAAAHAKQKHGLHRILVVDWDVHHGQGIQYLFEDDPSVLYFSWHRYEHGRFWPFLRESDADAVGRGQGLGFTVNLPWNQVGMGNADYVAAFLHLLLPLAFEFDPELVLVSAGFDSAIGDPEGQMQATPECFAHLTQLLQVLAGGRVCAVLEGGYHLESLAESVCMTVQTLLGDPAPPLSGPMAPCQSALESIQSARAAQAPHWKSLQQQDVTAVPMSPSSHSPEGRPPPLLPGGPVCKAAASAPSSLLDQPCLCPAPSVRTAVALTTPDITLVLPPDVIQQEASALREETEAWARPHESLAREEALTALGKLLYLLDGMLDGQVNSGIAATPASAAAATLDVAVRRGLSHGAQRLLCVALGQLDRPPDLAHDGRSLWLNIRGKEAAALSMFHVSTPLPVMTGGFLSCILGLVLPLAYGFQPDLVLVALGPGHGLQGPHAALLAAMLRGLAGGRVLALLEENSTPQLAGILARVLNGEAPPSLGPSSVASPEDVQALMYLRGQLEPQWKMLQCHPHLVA

The target in a further experiment is T4, Full length Human HDAC8 (Homo sapiens, UniProt Q9BY41).
T4 sequence (Q9BY41 1-377): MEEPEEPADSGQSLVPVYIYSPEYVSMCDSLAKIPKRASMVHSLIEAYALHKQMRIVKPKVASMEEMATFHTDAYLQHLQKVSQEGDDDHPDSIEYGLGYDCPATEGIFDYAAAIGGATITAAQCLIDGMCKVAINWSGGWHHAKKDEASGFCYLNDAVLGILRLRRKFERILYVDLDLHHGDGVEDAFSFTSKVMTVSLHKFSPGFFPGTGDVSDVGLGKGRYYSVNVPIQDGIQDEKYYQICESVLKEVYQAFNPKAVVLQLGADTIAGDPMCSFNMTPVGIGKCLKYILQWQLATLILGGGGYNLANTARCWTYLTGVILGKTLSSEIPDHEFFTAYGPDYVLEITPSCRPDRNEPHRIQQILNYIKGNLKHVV

The target in experiment [1] is Human HDAC9 a.a. 604-1066 (Homo sapiens, UniProt Q9UKV0).
Sequence of Human HDAC9 a.a. 604-1066 (Q9UKV0 604-1066 isoform Q9UKV0-5): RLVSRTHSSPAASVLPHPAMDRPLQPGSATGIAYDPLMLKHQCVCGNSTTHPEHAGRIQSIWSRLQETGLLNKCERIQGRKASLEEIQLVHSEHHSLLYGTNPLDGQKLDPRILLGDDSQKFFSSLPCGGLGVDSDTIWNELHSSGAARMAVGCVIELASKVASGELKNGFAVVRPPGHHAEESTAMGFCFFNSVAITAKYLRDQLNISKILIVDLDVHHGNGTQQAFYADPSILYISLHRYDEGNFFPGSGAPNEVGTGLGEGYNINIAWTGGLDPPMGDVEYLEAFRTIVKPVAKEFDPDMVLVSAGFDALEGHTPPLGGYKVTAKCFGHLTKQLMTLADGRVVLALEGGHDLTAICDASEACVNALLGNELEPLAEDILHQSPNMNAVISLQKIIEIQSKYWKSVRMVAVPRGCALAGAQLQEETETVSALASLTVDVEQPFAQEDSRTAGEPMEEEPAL
The mark [2] stands for this setting: read-out: In vitro enzymatic IC50, HDAC Paralog 6, Table 2.
Setting [3] is: read-out: In vitro enzymatic IC50, HDAC Paralog 8, Table 2.

The structures appear in SMILES notation. Like-named read-outs stand apart in the source and are kept apart here.

Sequence of Full length Human HDAC1 (Q13547 whole entry, the tested form may be a part): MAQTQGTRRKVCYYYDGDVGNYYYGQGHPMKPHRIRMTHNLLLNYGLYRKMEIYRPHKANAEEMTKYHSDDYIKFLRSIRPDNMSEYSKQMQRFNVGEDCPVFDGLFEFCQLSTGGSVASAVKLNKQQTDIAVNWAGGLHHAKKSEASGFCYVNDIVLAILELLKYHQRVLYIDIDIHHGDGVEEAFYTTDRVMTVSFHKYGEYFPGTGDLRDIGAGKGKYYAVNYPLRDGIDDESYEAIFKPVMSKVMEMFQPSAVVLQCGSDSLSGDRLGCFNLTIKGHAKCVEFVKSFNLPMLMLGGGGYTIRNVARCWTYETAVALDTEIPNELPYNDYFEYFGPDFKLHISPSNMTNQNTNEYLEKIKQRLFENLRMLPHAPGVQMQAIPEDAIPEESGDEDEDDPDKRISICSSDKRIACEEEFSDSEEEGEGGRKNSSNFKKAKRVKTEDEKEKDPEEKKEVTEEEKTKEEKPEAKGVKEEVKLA

For `O=C(NO)c1cc(F)c2c(c1)CCN1CCC[C@@H]21` (single isomer, unassigned) [compound 79], the IC50 (in general, the concentration at which inhibition is half-maximal) on Full length Human HDAC1 fell in the range of 1 to 10 µM; at Human HDAC7 aa 518-end, 0.1 to 1 µM; on Full length Human HDAC6, 1 to 100 nM; on Full length Human HDAC10, 10 to 100 µM; on Full length Human HDAC8, 1 to 10 µM; in experiment [1], 0.1 to 1 µM.
Turning to `O=C(NO)c1cc(F)c2c(c1)C[C@@H]1CCCCN1C2` (single isomer, unassigned) [compound 93], the IC50 fell in the range of 10 to 100 µM against Full length Human HDAC1; 1 to 10 µM on Human HDAC7 aa 518-end; 1 to 100 nM against Full length Human HDAC6; 10 to 100 µM against Full length Human HDAC10; 1 to 10 µM at Full length Human HDAC8; 1 to 10 µM in experiment [1].
Take `O=C(NO)c1cc(F)c2c(c1)C[C@H]1CCCCN1C2` (single isomer, unassigned) [compound 94]: the IC50 is above 100 µM at Full length Human HDAC1; 1 to 10 µM against Human HDAC7 aa 518-end; 100 to 1000 nM at Full length Human HDAC6; above 100 µM at Full length Human HDAC10; 1 to 10 µM at Full length Human HDAC8; 1 to 10 µM in experiment [1].
Regarding `O=C(NO)c1ccc(CN2C[C@@H]3CC[C@H]2CO3)c(F)c1` (single isomer, unassigned) [compound 172], the IC50 at Full length Human HDAC1 is above 100 µM; against Human HDAC7 aa 518-end, 1 to 10 µM; against Full length Human HDAC6, 1 to 100 nM; on Full length Human HDAC6 (setting [2]) it was 1 to 100 nM; at Full length Human HDAC10, above 100 µM; at Full length Human HDAC8, 1 to 10 µM. Moreover, the IC50 is 1 to 10 µM on Full length Human HDAC8 (setting [3]) and 10 to 100 µM in experiment [1].
`O=C(NO)c1ccc(CN2C[C@H]3CC[C@@H]2CO3)c(F)c1` (single isomer, unassigned) [compound 173]: the IC50 against Full length Human HDAC1 was 10 to 100 µM; at Human HDAC7 aa 518-end, 1 to 10 µM; at Full length Human HDAC6, 1 to 100 nM; on Full length Human HDAC10, 10 to 100 µM; at Full length Human HDAC8, 1 to 10 µM; in experiment [1] it was 1 to 10 µM.
`O=C(NO)c1cc(F)c2c(c1)CCN(C1CC3(CCCCC3)C1)C2` [compound 16]: the IC50 against Full length Human HDAC1 fell in the range of 10 to 100 µM; against Human HDAC7 aa 518-end it was 10 to 100 µM; against Full length Human HDAC6, 1 to 100 nM; at Full length Human HDAC6 (setting [2]), 1 to 100 nM; at Full length Human HDAC10, 10 to 100 µM; at Full length Human HDAC8 it was 10 to 100 µM. Besides, the values for the IC50 (on Full length Human HDAC8 (setting [3]); in experiment [1]) were 10 to 100 µM and above 100 µM, respectively.
`O=C(NO)c1cc(F)c2c(c1)CCN(Cc1ccccc1)C2` [compound 32]: the IC50 at Human HDAC7 aa 518-end fell in the range of 1 to 10 µM; at Full length Human HDAC6, 1 to 100 nM; at Full length Human HDAC6 (setting [2]) it was 1 to 100 nM; at Full length Human HDAC10 it was 10 to 100 µM; at Full length Human HDAC8, 1 to 10 µM; at Full length Human HDAC8 (setting [3]), 1 to 10 µM.
On to `O=C(NO)c1cc(F)c2c(c1)CCN(CC13CC4CC(CC(C4)C1)C3)C2` [compound 34], for which the IC50 on Full length Human HDAC1 is 10 to 100 µM; against Human HDAC7 aa 518-end it was 10 to 100 µM; on Full length Human HDAC6, 1 to 100 nM; at Full length Human HDAC6 (setting [2]), 1 to 100 nM; against Full length Human HDAC10 it was 10 to 100 µM; at Full length Human HDAC8, 10 to 100 µM. The IC50 (at Full length Human HDAC8 (setting [3]); in experiment [1]) was 10 to 100 µM each time.
As to `O=C(NO)c1ccc(CN2CC3CCC(C2)O3)c(F)c1` [compound 53], the IC50 at Full length Human HDAC1 fell in the range of 1 to 10 µM; at Human HDAC7 aa 518-end it was 0.1 to 1 µM; against Full length Human HDAC6 it was 1 to 100 nM; on Full length Human HDAC6 (setting [2]), 1 to 100 nM; against Full length Human HDAC10, 1 to 10 µM; at Full length Human HDAC8, 0.1 to 1 µM. In addition, the IC50 (at Full length Human HDAC8 (setting [3]); in experiment [1]) was 0.1 to 1 µM throughout.
Turning to `O=C(NO)c1ccc(CN2CC3CCC2CO3)c(F)c1` (stereo not drawn) [compound 58], the IC50 at Full length Human HDAC1 fell in the range of 10 to 100 µM; on Human HDAC7 aa 518-end it was 1 to 10 µM; against Full length Human HDAC6, 1 to 100 nM; at Full length Human HDAC6 (setting [2]) it was 1 to 100 nM; at Full length Human HDAC10, 10 to 100 µM; against Full length Human HDAC8, 0.1 to 1 µM. For the same compound, the IC50 lay in the range of 0.1 to 1 µM on Full length Human HDAC8 (setting [3]) and 1 to 10 µM in experiment [1].
With `O=C(NO)c1ccc(CN2CCC3(CCCCC3)C2)c(F)c1` [compound 75, 4-((2-Azaspiro[4.5]decan-2-yl)methyl)-3-fluoro-N-hydroxybenzamide], the IC50 against Human HDAC7 aa 518-end lay within 1 to 10 µM; against Full length Human HDAC6 it was 1 to 100 nM; on Full length Human HDAC6 (setting [2]) it was 1 to 100 nM; at Full length Human HDAC10, 10 to 100 µM; against Full length Human HDAC8, 1 to 10 µM; on Full length Human HDAC8 (setting [3]), 1 to 10 µM.
For `O=C(NO)c1ccc2c(c1)CN1CCCCN1C2` [compound 106, N-hydroxy-1,2,3,4,6,11-hexahydropyridazino[1,2-b]phthalazine-8-carboxamide], the IC50 is 10 to 100 µM on Full length Human HDAC1; 10 to 100 µM at Human HDAC7 aa 518-end; 100 to 1000 nM against Full length Human HDAC6; 100 to 1000 nM at Full length Human HDAC6 (setting [2]); above 100 µM at Full length Human HDAC10; 1 to 10 µM at Full length Human HDAC8. The results for the IC50 (at Full length Human HDAC8 (setting [3]); in experiment [1]) were 1 to 10 µM and 10 to 100 µM, respectively.
